Measurements: patent publication US8975234B2, “Anti-bacterial infection, inflammation, and leukemia composition and use thereof” (priority 2011, dated 2015)
Converted amounts (≈) assume the structure as drawn. Like-named read-outs stand apart in the source and are kept apart here.

Legend:
[1] = test system: K-562 cells; test: ROS test (DCF-DA); assay type: cell-based, human; details: pre-treatment 10 μM before Tellimagrandin II 50 μM for 2 hours
Experimental: A radical specific fluorescent dye, 2′,7′-dichlorofluorescein (DCF-DA) was used to detect H2O2/NO-based radicals or O2— in cells respectively.
A total of 3 mL cell solution at the concentration of 1×10^6 K-562 cells per mL was cultured with 6 cm cell culture plates in an incubator supplied with 5% CO2 at 37° C. for 30 minutes so that cells could adapt to the environment. Tellimagrandin II solutions of different concentrations were added by order so that the final concentrations are 0, 30, 40 and 50 μM respectively. The solution was placed in incubator with 5% CO2 at 37° C. for 2 hours before being centrifuged at 3,500 rpm at 4° C. for 5 minutes and then being rinsed by PBS once. 2′,7′-dichlorofluorescein (DCF-DA) was added before the solution was put into dark incubator for 45 minutes and then rinsed by PBS once again. Finally, 1 mL PBS was used to resuspend the cells before BD FACScan was used to detect the fluorescent signal.

[2] = DPPH scavenging assay; details: 100 μM; −FeCl2
Experimental: Test reagents, natural extracts and Vitamin C (ascorbic acid) were dissolved in methanol to make a stock solution 10×. Vitamin C was used as the positive control. 120 μM DPPH solution was prepared. Taken 20 μL of stock reagents, natural extracts and Vitamin C on a 96-well microplate, and methanol was added to make up to the total volume of 100 μL. Control was 100 μL methanol. Each sample was mixed with 100 μL DPPH solution and incubated in the dark for 40 minutes. DPPH level of each well was evaluated by detecting the optical density of each well at 517 nm and the results were shown in Table 5.

[3] = test system: standard MRSA strain (ATCC 33591); test: Minimum inhibitory concentration (broth microdilution); assay type: cell-based, Staphylococcus aureus; details: Staphylococcus aureus, Table 1
Experimental: (§1) A serial of twofold dilution of the tested antibiotics (oxacillin, erythromycin, ampicillin, kanamycin, levofoxacin, vancomycin and doxycycline) was perform by Broth microdilution method to a final concentration of 2-512 μg/mL. The bacterial overnight culture was collected and re-suspended in the Muller-Hilton (M-H) broth. An aliquot of cell suspension (OD600=0.1) was prepared. The bacterial suspensions were plated in 96-well plate and incubated with test antibiotics at 37° C. in a 5% CO2 incubator (Table 1 to Table 4).

[4] = test system: MRSA 19615; test: Minimum inhibitory concentration (broth microdilution) and FIC index; assay type: cell-based, Staphylococcus aureus
Experimental: as §1
(§2) The […], […] and antagonism between two drugs was evaluated by the following formula:
(§3) [formula] The criteria of fractional inhibitory concentration index: […]

[5] = test system: MRSA 18631; test: as above; assay type: cell-based, Staphylococcus aureus
Experimental: as §1, §2, §3

[6] = test system: MRSA 18271; test: as above; assay type: cell-based, Staphylococcus aureus
Experimental: as §1, §2, §3

[7] = test system: MSSA (Methicillin-susceptible Staphylococcus aureus); test: as above; assay type: cell-based
Experimental: as §1, §2, §3

[8] = Staphylococcus aureus, MRSA, Table 1, MRSA 19615, read-out: Minimum inhibitory concentration
[9] = Staphylococcus aureus, MRSA, Table 2, 19615, with TG II 30 μg/mL, read-out: MIC
[10] = Staphylococcus aureus, MRSA, Table 2, 19615, with TG II 40 μg/mL, read-out: MIC
[11] = Staphylococcus aureus, MRSA, Table 2, 19615, without TG II, read-out: MIC
[12] = Staphylococcus aureus, MRSA, Table 3, 19615, Tellimagrandin II (40 μg/ml) −, read-out: MIC
[13] = Table 2, 19615, with TG II 30 μg/mL
[14] = Table 2, 19615, with TG II 40 μg/mL
[15] = Table 3, 19615, Tellimagrandin II (40 μg/ml) +
[16] = Staphylococcus aureus, MRSA, Table 1, MRSA 18631, read-out: Minimum inhibitory concentration
[17] = Staphylococcus aureus, MRSA, Table 2, 18631, with TG II 30 μg/mL, read-out: MIC
[18] = Staphylococcus aureus, MRSA, Table 2, 18631, with TG II 40 μg/mL, read-out: MIC
[19] = Staphylococcus aureus, MRSA, Table 2, 18631, without TG II, read-out: MIC
[20] = Staphylococcus aureus, MRSA, Table 3, 18631, Tellimagrandin II (40 μg/ml) −, read-out: MIC
[21] = Table 2, 18631, with TG II 30 μg/mL
[22] = Table 2, 18631, with TG II 40 μg/mL
[23] = Table 3, 18631, Tellimagrandin II (40 μg/ml) +
[24] = Staphylococcus aureus, MRSA, Table 1, MRSA 18271, read-out: Minimum inhibitory concentration
[25] = Staphylococcus aureus, MRSA, Table 2, 18271, with TG II 30 μg/mL, read-out: MIC
[26] = Staphylococcus aureus, MRSA, Table 2, 18271, with TG II 40 μg/mL, read-out: MIC
[27] = Staphylococcus aureus, MRSA, Table 2, 18271, without TG II, read-out: MIC
[28] = Staphylococcus aureus, MRSA, Table 3, 18271, Tellimagrandin II (40 μg/ml) −, read-out: MIC
[29] = Table 2, 18271, with TG II 30 μg/mL
[30] = Table 2, 18271, with TG II 40 μg/mL
[31] = Table 3, 18271, Tellimagrandin II (40 μg/ml) +
[32] = Staphylococcus aureus, MSSA, Table 1, MSSA, read-out: Minimum inhibitory concentration
[33] = Staphylococcus aureus, MSSA, Table 2, Non-drug resistant Staphylococcus aureus, with TG II 30 μg/mL, read-out: MIC
[34] = Staphylococcus aureus, MSSA, Table 2, Non-drug resistant Staphylococcus aureus, without TG II, read-out: MIC
[35] = Staphylococcus aureus, MSSA, Table 3, MSSA, Tellimagrandin II (40 μg/ml) −, read-out: MIC
[36] = Table 2, Non-drug resistant Staphylococcus aureus, with TG II 30 μg/mL
[37] = Table 3, MSSA, Tellimagrandin II (40 μg/ml) +

Row | MIC [3] [µg/mL] | MIC [4, 8] [µg/mL] | MIC [4, 9] [µg/mL] | MIC [4, 10] [µg/mL] | MIC [4, 11] [µg/mL] | MIC [4, 12] [µg/mL] | MIC [4, 15] [µg/mL] | MIC [5, 16] [µg/mL] | MIC [5, 17] [µg/mL] | MIC [5, 18] [µg/mL] | MIC [5, 19] [µg/mL] | MIC [5, 20] [µg/mL] | MIC [6, 24] [µg/mL] | MIC [6, 28] [µg/mL] | MIC [7, 32] [µg/mL] | MIC [7, 35] [µg/mL] | SMILES | FIC [4, 13] | FIC [4, 14] | FIC [4, 15] | FIC [5, 21] | other results
1 | – | – | – | – | – | – | – | – | – | – | – | – | – | – | – | – | CC(=O)N[C@@H](CS)C(=O)O [N-acetyl-L-cysteine] | – | – | – | – | ROS production [1]: inhibition of ROS production
2 | – | – | – | – | – | – | – | – | – | – | – | – | – | – | – | – | O=C1O[C@H]([C@@H](O)CO)C(O)=C1O [Vitamin C, ascorbic acid] | – | – | – | – | DPPH free-radical scavenging activity [2]: 81.09 ± 0.5%
3 | 64 (≈ 144 µM) | > 512 | 16 | 8 | 512 | 512 | 8 | 256 | 2 | 2 | 256 | 256 | > 512 | 512 | 128 | 128 | C[C@H]1c2cccc(O)c2C(=O)C2=C(O)[C@]3(O)C(=O)C(C(N)=O)=C(O)[C@@H](N(C)C)[C@@H]3[C@@H](O)[C@@H]21 [Doxycycline] | 0.031 | 0.016 | 0.016 | 0.008 | FIC [5, 22]: 0.008; FIC [5, 23]: 0.008; MIC [5, 23]: 2 µg/mL; MIC [6, 25]: 2 µg/mL; MIC [6, 26]: 2 µg/mL; MIC [6, 27]: 512 µg/mL; FIC [6, 29]: 0.004; FIC [6, 30]: 0.004; FIC [6, 31]: 0.004; MIC [6, 31]: 2 µg/mL; MIC [7, 33]: 16 µg/mL; MIC ([7]; Staphylococcus aureus, MSSA, Table 2, Non-drug resistant Staphylococcus aureus, with TG II 40 μg/mL, read-out: MIC): 8 µg/mL; MIC [7, 34]: 128 µg/mL; FIC [7, 36]: 0.125; FIC ([7]; Table 2, Non-drug resistant Staphylococcus aureus, with TG II 40 μg/mL): 0.016; FIC [7, 37]: 0.063; MIC [7, 37]: 8 µg/mL
4 | 32 (≈ 88.6 µM) | > 512 | 512 | 512 | > 512 | 512 | 512 | > 512 | 512 | 512 | > 512 | 256 | > 512 | 512 | > 512 | 512 | C[C@H]1COc2c(N3CCN(C)CC3)c(F)cc3c(=O)c(C(=O)O)cn1c23 [Levofloxacin] | 1 | 1 | 1.00 | 1 | FIC [5, 22]: 1; FIC [5, 23]: 2.00; MIC [5, 23]: 512 µg/mL; MIC [6, 25]: 512 µg/mL; MIC [6, 26]: 512 µg/mL; MIC [6, 27]: > 512 µg/mL; FIC [6, 29]: 1; FIC [6, 30]: 1; FIC [6, 31]: 1.00; MIC [6, 31]: 512 µg/mL; MIC [7, 33]: 8 µg/mL; MIC [7, 34]: > 512 µg/mL; FIC [7, 36]: 0.016; FIC [7, 37]: 1.00; MIC [7, 37]: 512 µg/mL
5 | > 512 | > 512 | – | – | – | 512 | – | > 512 | – | – | – | 512 | > 512 | 512 | > 512 | 512 | NC[C@H]1O[C@H](O[C@H]2[C@H](O)[C@@H](O[C@H]3O[C@H](CO)[C@@H](O)[C@H](N)[C@H]3O)[C@H](N)C[C@@H]2N)[C@H](O)[C@@H](O)[C@@H]1O [Kanamycin] | – | – | – | – | –
